# Source: US20230310428A1, “EGFR INHIBITOR AND PREPARATION METHOD AND USE THEREOF” (HONGYUN BIOTECH CO., LTD., priority 2020, published 2023)
# pIC50: −log10 of the molar value. Like-named read-outs stand apart in the source and are kept apart here.
# Legend:
# Assay in all cases: Growth inhibitory activity of compounds on BaF3 cell lines stably transfected with kinase (MTS, 48 h)
# Type in all cases: cell-based
# [1] = target: T1, various mutants of kinase EGFR (BaF3 cell lines stably transfected with kinase) (Homo sapiens, UniProt P00533)
# T1 construct: other: BaF3 cells stably transfected with EGFR Δ19Del; MTS, 48 h; other: BaF3 cell line stably transfected with EGFR Δ19Del
# In short: (§1)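 Cells in DMEM or RPMI 1640 with 10% FBS were exposed to compound at 8 concentrations (top 10 µM, 1/3 steps, 0.1% DMSO) for 48 h at 37 °C, 5% CO2. MTS/PES was then added for 1-4 h and OD490 read; IC50 was fitted from growth inhibition versus 0.1% DMSO control.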
# [2] = target: T2, various mutants of kinase EGFR (BaF3 cell lines stably transfected with kinase) (Homo sapiens, UniProt P00533, C797S/L858R/T790M)
# T2 construct: expressed in transfected cells; host or cells: BaF3
# In short: as §1
# [3] = target: T3, various mutants of kinase EGFR (BaF3 cell lines stably transfected with kinase) (Homo sapiens, UniProt P00533, L858R)
# T3 construct: expressed in transfected cells; host or cells: BaF3
# In short: as §1
# [4] = target: T4, various mutants of kinase EGFR (BaF3 cell lines stably transfected with kinase) (Homo sapiens, UniProt P00533, L858R/T790M)
# T4 construct: expressed in transfected cells; host or cells: BaF3
# In short: as §1
# [5] = target: T5, various mutants of kinase EGFR (BaF3 cell lines stably transfected with kinase) (Homo sapiens, UniProt P00533, T790M/C797S, form not given)
# T5 construct: other: BaF3 cells stably transfected with EGFR Δ19Del/T790M/C797S; MTS, 48; other: BaF3 cell line stably transfected with EGFR Δ19Del/T790M/C7
# In short: as §1
# [6] = target: T6, various mutants of kinase EGFR (BaF3 cell lines stably transfected with kinase) (Homo sapiens, UniProt P00533, T790M, form not given)
# T6 construct: other: BaF3 cells stably transfected with EGFR Δ19Del/T790M; MTS, 48 h; other: BaF3 cell line stably transfected with EGFR Δ19Del/T790M; MTS, 48
# In short: as §1
# [7] = BaF3 cells stably transfected with EGFR Δ19Del, read-out: IC50, growth inhibition, Δ19Del
# [8] = BaF3 cells stably transfected with EGFR L858R/T790M/C797S, read-out: IC50, growth inhibition, L858R/T790M/C797S
# [9] = BaF3 cells stably transfected with EGFR L858R, read-out: IC50, growth inhibition, L858R
# [10] = BaF3 cells stably transfected with EGFR L858R/T790M, read-out: IC50, growth inhibition, L858R/T790M
# [11] = BaF3 cells stably transfected with EGFR Δ19Del/T790M/C797S, read-out: IC50, growth inhibition, Δ19Del/T790M/C797S
# [12] = BaF3 cells stably transfected with EGFR Δ19Del/T790M, read-out: IC50, growth inhibition, Δ19Del/T790M
# [13] = BaF3 cell line stably transfected with EGFR Δ19Del, read-out: Δ19Del growth inhibitory activity IC50
# [14] = BaF3 cell line stably transfected with EGFR L858R/T790M/C797S, read-out: L858R/T790M/ C797S growth inhibitory activity IC50
# [15] = BaF3 cell line stably transfected with EGFR L858R, read-out: L858R growth inhibitory activity IC50
# [16] = BaF3 cell line stably transfected with EGFR L858R/T790M, read-out: L858R/ T790M growth inhibitory activity IC50
# [17] = BaF3 cell line stably transfected with EGFR Δ19Del/T790M/C797S, read-out: Δ19Del/T790M/ C797S growth inhibitory activity IC50
# [18] = BaF3 cell line stably transfected with EGFR Δ19Del/T790M, read-out: Δ19Del/ T790M growth inhibitory activity IC50
# T5 sequence (P00533 with tags, fused parts or gaps DEL746-750/T790M/C797S, form open): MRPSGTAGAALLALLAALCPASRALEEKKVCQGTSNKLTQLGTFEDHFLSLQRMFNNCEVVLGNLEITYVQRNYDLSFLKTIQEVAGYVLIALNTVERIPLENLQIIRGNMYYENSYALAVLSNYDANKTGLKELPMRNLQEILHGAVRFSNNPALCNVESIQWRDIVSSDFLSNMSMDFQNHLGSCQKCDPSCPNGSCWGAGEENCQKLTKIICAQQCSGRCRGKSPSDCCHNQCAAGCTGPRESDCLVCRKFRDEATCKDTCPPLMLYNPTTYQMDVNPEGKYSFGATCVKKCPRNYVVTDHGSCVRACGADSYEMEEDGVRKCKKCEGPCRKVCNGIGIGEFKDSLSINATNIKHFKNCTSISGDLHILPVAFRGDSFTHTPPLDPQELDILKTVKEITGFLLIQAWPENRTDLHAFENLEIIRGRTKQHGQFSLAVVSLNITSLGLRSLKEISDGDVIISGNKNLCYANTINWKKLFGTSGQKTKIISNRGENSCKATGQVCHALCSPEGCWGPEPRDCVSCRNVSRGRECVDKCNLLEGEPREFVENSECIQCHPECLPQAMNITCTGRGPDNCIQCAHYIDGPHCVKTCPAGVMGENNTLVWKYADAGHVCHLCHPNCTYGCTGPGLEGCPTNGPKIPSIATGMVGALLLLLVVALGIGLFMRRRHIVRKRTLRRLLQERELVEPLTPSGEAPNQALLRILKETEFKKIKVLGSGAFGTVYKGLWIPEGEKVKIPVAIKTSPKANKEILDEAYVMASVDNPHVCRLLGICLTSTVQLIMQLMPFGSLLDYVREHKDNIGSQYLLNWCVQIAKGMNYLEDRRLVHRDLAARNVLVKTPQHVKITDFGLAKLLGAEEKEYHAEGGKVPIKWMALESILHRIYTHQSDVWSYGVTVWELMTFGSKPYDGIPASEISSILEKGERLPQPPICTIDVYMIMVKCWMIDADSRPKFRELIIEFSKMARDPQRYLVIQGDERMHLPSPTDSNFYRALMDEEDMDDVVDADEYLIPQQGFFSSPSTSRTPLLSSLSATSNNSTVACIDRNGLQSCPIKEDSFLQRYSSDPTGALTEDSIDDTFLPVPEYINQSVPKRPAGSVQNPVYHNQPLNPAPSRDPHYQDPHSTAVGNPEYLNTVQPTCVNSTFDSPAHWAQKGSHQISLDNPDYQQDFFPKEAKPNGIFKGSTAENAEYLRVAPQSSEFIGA
# T1 sequence (P00533 with tags, fused parts or gaps DEL746-750): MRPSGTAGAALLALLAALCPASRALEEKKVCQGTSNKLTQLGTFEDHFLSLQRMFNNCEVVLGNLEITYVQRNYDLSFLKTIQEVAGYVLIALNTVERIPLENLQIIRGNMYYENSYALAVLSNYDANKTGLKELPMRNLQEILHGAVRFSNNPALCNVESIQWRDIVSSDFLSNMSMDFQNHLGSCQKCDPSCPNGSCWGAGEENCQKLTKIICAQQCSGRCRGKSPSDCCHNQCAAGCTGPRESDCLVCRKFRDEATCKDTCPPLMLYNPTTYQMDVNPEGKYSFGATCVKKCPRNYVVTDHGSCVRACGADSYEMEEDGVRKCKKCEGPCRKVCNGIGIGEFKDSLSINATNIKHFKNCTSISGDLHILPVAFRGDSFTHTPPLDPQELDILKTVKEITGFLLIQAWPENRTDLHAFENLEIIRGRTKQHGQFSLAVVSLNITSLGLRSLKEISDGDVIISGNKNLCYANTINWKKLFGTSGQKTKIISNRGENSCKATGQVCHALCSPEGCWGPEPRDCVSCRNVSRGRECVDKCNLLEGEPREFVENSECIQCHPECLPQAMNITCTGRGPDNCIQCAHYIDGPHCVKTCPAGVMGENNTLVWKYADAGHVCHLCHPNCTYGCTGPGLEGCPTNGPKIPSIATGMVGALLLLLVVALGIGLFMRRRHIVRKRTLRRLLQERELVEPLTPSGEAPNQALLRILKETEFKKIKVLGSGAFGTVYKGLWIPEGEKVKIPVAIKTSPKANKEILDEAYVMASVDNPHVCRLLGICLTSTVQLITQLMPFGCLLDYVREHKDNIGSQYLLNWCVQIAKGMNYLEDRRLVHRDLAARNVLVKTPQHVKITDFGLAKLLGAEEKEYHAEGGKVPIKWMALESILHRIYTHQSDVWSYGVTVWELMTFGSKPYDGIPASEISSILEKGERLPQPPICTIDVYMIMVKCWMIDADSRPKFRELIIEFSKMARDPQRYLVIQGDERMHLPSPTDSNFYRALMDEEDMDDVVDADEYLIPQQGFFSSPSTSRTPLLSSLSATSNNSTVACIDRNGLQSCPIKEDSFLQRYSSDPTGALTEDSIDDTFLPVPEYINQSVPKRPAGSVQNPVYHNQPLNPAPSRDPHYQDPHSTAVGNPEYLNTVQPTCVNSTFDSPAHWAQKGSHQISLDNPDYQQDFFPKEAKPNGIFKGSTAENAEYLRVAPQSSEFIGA
# T6 sequence (P00533 with tags, fused parts or gaps DEL746-750/T790M, form open): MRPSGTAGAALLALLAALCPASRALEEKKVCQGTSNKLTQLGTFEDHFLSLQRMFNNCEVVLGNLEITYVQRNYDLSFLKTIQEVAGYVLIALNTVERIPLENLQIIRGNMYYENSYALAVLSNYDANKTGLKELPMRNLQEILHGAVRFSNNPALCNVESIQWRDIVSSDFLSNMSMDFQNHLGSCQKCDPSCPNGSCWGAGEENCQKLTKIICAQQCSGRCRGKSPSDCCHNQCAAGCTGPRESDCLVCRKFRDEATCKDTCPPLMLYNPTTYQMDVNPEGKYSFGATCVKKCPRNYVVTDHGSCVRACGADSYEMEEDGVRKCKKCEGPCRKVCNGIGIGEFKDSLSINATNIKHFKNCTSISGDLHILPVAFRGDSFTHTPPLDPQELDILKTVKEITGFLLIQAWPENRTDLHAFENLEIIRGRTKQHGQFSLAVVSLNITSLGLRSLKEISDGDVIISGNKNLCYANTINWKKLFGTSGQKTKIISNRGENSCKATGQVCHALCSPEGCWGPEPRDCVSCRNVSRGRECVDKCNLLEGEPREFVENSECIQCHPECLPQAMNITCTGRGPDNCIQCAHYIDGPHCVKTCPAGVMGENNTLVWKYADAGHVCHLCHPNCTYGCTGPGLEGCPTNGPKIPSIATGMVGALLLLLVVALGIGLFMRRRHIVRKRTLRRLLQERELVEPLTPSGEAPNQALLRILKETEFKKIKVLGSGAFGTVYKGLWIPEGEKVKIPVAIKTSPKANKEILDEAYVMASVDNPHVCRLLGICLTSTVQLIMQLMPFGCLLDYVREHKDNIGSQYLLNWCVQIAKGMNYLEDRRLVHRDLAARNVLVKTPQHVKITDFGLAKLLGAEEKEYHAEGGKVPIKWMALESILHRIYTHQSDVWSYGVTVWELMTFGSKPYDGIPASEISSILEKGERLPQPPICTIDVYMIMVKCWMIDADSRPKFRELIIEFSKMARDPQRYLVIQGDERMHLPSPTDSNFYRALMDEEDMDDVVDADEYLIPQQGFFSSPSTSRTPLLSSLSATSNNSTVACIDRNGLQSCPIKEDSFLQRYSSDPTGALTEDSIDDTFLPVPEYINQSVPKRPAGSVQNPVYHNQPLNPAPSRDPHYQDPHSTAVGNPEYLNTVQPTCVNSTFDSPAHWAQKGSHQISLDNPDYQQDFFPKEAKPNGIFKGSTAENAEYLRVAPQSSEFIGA
# T4 sequence (P00533 25-1210 T790M/L858R): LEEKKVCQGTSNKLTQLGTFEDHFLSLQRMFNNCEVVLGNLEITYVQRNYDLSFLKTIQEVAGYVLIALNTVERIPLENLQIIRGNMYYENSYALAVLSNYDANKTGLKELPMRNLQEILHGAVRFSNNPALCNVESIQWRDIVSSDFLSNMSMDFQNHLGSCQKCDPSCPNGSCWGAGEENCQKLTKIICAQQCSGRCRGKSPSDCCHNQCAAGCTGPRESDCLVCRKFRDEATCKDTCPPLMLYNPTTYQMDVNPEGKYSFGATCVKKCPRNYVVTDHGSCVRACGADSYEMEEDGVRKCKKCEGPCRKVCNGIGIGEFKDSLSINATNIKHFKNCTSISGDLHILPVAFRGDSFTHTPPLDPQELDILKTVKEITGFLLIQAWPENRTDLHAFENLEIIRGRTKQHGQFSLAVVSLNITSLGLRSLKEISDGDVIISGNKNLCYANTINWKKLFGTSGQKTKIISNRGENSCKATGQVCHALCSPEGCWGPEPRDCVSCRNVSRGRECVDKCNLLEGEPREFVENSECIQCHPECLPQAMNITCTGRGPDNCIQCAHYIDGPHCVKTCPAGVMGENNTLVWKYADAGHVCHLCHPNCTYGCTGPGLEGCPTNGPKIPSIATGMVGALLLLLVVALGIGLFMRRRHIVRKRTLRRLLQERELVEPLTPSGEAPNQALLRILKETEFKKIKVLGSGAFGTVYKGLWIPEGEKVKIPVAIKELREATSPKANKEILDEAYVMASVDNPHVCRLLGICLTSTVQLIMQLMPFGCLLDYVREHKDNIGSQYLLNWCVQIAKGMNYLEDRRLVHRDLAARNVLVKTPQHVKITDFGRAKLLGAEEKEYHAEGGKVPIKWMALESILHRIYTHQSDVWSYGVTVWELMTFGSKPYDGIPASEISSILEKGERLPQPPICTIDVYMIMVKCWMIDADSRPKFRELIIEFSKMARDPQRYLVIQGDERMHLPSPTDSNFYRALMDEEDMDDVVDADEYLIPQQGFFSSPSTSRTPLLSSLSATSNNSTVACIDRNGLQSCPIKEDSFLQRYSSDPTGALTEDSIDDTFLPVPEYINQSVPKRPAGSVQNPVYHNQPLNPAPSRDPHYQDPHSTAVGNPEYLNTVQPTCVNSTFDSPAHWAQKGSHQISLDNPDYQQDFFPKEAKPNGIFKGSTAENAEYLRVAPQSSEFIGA
SMILES,"pIC50 [1, 7]","pIC50 [2, 8]","pIC50 [3, 9]","pIC50 [4, 10]","pIC50 [5, 11]","pIC50 [6, 12]","pIC50 [1, 13]","pIC50 [2, 14]","pIC50 [3, 15]","pIC50 [4, 16]","pIC50 [5, 17]","pIC50 [6, 18]"
CCc1cc(Nc2ncc(OC)c(Nc3ccc4nccnc4c3N(C)S(C)(=O)=O)n2)c(OC)cc1N1CCN(C)CC1 [Compound I-283],≥ 7.30,≥ 7.30,≥ 7.30,≥ 7.30,≥ 7.30,≥ 7.30,,,,,,
COc1cc(N2CCC(N3CCN(C)CC3)CC2)ccc1Nc1ncc(Cl)c(Nc2ccc3nccnc3c2N(C)S(=O)(=O)C2CC2)n1 [Compound I-237],6.30 to 7.30,6.30 to 7.30,6.30 to 7.30,6.30 to 7.30,6.30 to 7.30,6.30 to 7.30,,,,,,
COc1cc(N2CCC(N3CCN(C)CC3)CC2)c(C(C)C)cc1Nc1ncc(Br)c(Nc2ccc3nccnc3c2N(C)S(C)(=O)=O)n1 [Compound I-284],6.30 to 7.30,≥ 7.30,5.60 to 6.30,6.30 to 7.30,≥ 7.30,6.30 to 7.30,,,,,,
COc1cc(N2CCC(N3CCN(C)CC3)CC2)ccc1Nc1ncc(Br)c(Nc2ccc3nccnc3c2N(C)S(C)(=O)=O)n1 [Compound I-1],≥ 7.30,≥ 7.30,≥ 7.30,≥ 7.30,≥ 7.30,≥ 7.30,,,,,,
COc1cc(N2CCC(N(C)C)CC2)c(C)cc1Nc1nc(Nc2ccc3nccnc3c2N(C)S(C)(=O)=O)c2[nH]ccc2n1 [II-1-31],,,,,,,5.60 to 6.30,5.60 to 6.30,5.60 to 6.30,5.60 to 6.30,6.30 to 7.30,5.60 to 6.30
COc1cc(N2CCC(N(C)C)CC2)c(C)cc1Nc1ncc(Br)c(Nc2ccc3nccnc3c2N(C2CC2)S(C)(=O)=O)n1 [Compound I-311],,,,,,,6.30 to 7.30,≥ 7.30,6.30 to 7.30,≥ 7.30,≥ 7.30,≥ 7.30
CCc1cc(Nc2ncc([N+](=O)[O-])c(Nc3ccc4nccnc4c3N(C)S(C)(=O)=O)n2)c(OC)cc1N1CCC(N(C)C)CC1 [Compound I-193],≥ 7.30,≥ 7.30,≥ 7.30,≥ 7.30,≥ 7.30,≥ 7.30,,,,,,
CN1CCN(C2CCN(c3ccc(Nc4nc(Nc5ccc6nccnc6c5N(C)S(C)(=O)=O)c5occc5n4)c(OC(F)(F)F)c3)CC2)CC1 [II-1-40],,,,,,,5.60 to 6.30,5.60 to 6.30,5.60 to 6.30,5.60 to 6.30,5.60 to 6.30,6.30 to 7.30
CCc1cc(Nc2nc(Nc3ccc4nccnc4c3N(C)S(C)(=O)=O)c3[nH]ccc3n2)c(OC)cc1N1CCN(C)CC1 [II-1-34],,,,,,,5.60 to 6.30,5.60 to 6.30,5.60 to 6.30,5.60 to 6.30,6.30 to 7.30,6.30 to 7.30
CCn1ccc(Nc2ncc(Br)c(Nc3ccc4nccnc4c3N(C)S(C)(=O)=O)n2)n1 [Compound I-383],,,,,,,6.30 to 7.30,≥ 7.30,6.30 to 7.30,6.30 to 7.30,6.30 to 7.30,6.30 to 7.30
CCc1cc(Nc2ncc(Br)c(Nc3ccc4nccnc4c3N(C)S(C)(=O)=O)n2)c(OC)nc1N1CCC(N2CCN(C)CC2)CC1 [Compound I-6],6.30 to 7.30,≥ 7.30,≥ 7.30,≥ 7.30,≥ 7.30,≥ 7.30,,,,,,
CN1CCN(c2ccc(Nc3ncc(Br)c(Nc4ccc5nccnc5c4N(C)S(C)(=O)=O)n3)cn2)CC1 [Compound I-56],≥ 7.30,≥ 7.30,≥ 7.30,≥ 7.30,≥ 7.30,≥ 7.30,,,,,,
